Results as given in patent publication US20250262194A1, “PHARMACEUTICAL FOR TREATING OR PREVENTING CANCER” (CHUGAI SEIYAKU KABUSHIKI KAISHA, priority 2022, published 2025).
Structures can show the parent of a compound that is named as a salt.

Key:
[1] = tested on: KRAS mutation-positive human cancer cell line NCI-H1373; test: In vivo antitumor activity, NCI-H1373-transplanted models (Example 5); parameters: species or system nude mice; conditions: sodium salt of compound 1 0.25 mg/kg orally once a day and/or TNO155 10 mg/kg orally twice a day, 30 days
Experimental: (§1) Use in combination of the sodium salt of the compound 1 and TNO155 was evaluated for its in vivo antitumor activity using nude mice in which any of KRAS mutation-positive human cancer cell lines NCI-H1373, NCI-H358 and NCI-H441 (all, ATCC) was transplanted. The NCI-H1373 cells, the NCI-H358 cells, and the NCI-H441 cells were subcutaneously transplanted at 5×10^6, 1×10^7, and 5×10^6, respectively, per mouse to the mice. The mice were grouped (n=5) when a tumor volume reached approximately 150 to 300 mm^3.
(§2) The NCI-H1373-, NCI-H358- or NCI-H441-transplanted models received the single-agent administration or combined administration of the sodium salt of the compound 1 and TNO155. The sodium salt of the compound 1 was dissolved in solvent A for administration. TNO155 was diluted with 0.5% Tween 80 and 0.5% methyl cellulose prepared with injectable distilled water (solvent D) for administration.
Administration to the NCI-H1373-transplanted models was performed as described below. The sodium salt of the compound 1 and the solvent D were administered at 0.25 mg/kg and 10 ml/kg, respectively, to the single-agent administration group of the sodium salt of the compound 1. […]
(§3) The tumor volumes of the mice were calculated according to the expression (4). […]

[2] = tested on: KRAS mutation-positive human cancer cell line NCI-H358; test: In vivo antitumor activity, NCI-H358-transplanted models (Example 5); parameters: species or system nude mice; conditions: sodium salt of compound 1 0.25 mg/kg orally once a day and/or TNO155 5 mg/kg orally twice a day, 21 days
Experimental: as §1, §2
Administration to the NCI-H358-transplanted models was performed as described below. The sodium salt of the compound 1 and the solvent D were administered at 0.25 mg/kg and 10 ml/kg, respectively, to the single-agent administration group of the sodium salt of the compound 1. TNO155 and the solvent A were administered at 5 mg/kg and 10 ml/kg, respectively, to the single-agent administration group of TNO155. […]
as §3

[3] = tested on: KRAS mutation-positive human cancer cell line NCI-H441; test: In vivo antitumor activity, NCI-H441-transplanted models (Example 5); parameters: species or system nude mice; conditions: sodium salt of compound 1 0.125 or 0.25 mg/kg orally once a day and/or TNO155 5 or 10 mg/kg orally twice a day, 13 days
Experimental: as §1, §2
Administration to the NCI-H441-transplanted models was performed as described below. The sodium salt of the compound 1 and the solvent D were administered at 0.125 mg/kg or 0.25 mg/kg and 10 ml/kg, respectively, to the single-agent administration group of the sodium salt of the compound 1. […]
as §3

[4] = tested on: phosphorylation of MEK and ERK and binding between KRAS and GTP within human cancer cells (NCI-H2122, NCI-H1373, NCI-H441, HPAC); test: In vitro RAS signal inhibitory activity evaluation (Western blot); conditions: for attenuation of inhibition of pMEK and pERK by lapse of time (Western blot, FIGS. 2 and 3): cells recovered after 4, 24 or 72 hours, single-agent or combined treatment; for inhibition of pMEK, pERK, DUSP4 and DUSP6 (Western blot, FIGS. 2 and 3): 3, 10 or 30 nmol/L compound 1, 1000 nmol/L TNO155, 100 nmol/L GDC-1971
Experimental: The human cancer cells used were KRAS mutation-positive human lung cancer cell lines NCI-H2122 (KRAS-G12C mutation), NCI-H1373 (KRAS-G12C mutation), NCI-H441 (KRAS-G12V mutation) and HPAC (KRAS-G12D) (all, ATCC). These cells were inoculated to a three-dimensional culture plate PrimeSurface (Sumitomo Bakelite Co., Ltd.) containing a medium. The plate inoculated with the cells was cultured at 37° C. in a 5% carbon dioxide incubator for 24 hours. […] The plate thus subjected to single-agent treatment or combined treatment was cultured at 37° C. in a 5% carbon dioxide incubator. After a lapse of 4 hours, 24 hours or 72 hours, the cells were recovered. The recovered cells were lysed with Cell Lysis Buffer (Cell Signaling Technology, Inc.) containing protease and phosphatase inhibitors (Thermo Fisher Scientific Inc.) to obtain a protein solution.
RAS-GTP, an activated form of RAS, was recovered from a portion of the obtained protein solution using Active Ras Pull-Down and Detection Kit (Thermo Fisher Scientific Inc.). SDS-PAGE was carried out using the obtained RAS-GTP concentrated solution and the protein solution, and migrated proteins were transferred to a PVDF membrane using Trans-Blot Turbo Transfer System (Bio-Rad Laboratories, Inc.). After blocking, the PVDF membrane was reacted with a primary antibody and a secondary antibody in this order. The chemiluminescence of protein bands was caused with Chemi-lumi One Super (Nacalai Tesque, Inc.). The bands were detected with ChemiDoc Touch Imaging System (Bio-Rad Laboratories, Inc.).
“KRAS-GTP” depicts KRAS bound with GTP. “pMEK” and “pERK” depict phosphorylated MEK and ERK, respectively.

[5] = tested on: KRAS-G12C mutation-positive human cancer cell line MIA PaCa-2; test: In vivo antitumor activity, MIA PaCa-2 xenograft mice (Example 3); parameters: species or system nude mice; conditions: sodium salt of compound 1 0.25 mg/kg and/or sotorasib 10 mg/kg, orally once a day for 14 days
Experimental: (§7) This evaluation employed xenograft mice in which a KRAS-G12C mutation-positive human cancer cell line MIA PaCa-2 or NCI-H2122 (both, ATCC) was transplanted. The xenograft mice were prepared by subcutaneously transplanting 5×10^6 human cells per mouse to nude mice. After cell transplantation, the mice were grouped (n=8) when a tumor volume reached 200 to 340 mm^3.
The sodium salt of the compound 1 was dissolved in 10% DMSO/10% Cremophor EL/15% HP-β-CD (2-hydroxypropyl-β-cyclodextrin)/15% polyethylene glycol-400/50% injectable distilled water (solvent A) for administration. […] The sodium salt of the compound 1 and the solvent B were administered at 0.25 mg/kg and 20 ml/kg, respectively, to the single-agent administration group of the sodium salt of the compound 1. […] The solvent A and the solvent B were administered at 20 ml/kg and 20 ml/kg, respectively, to a control group. […] After the completion of the administration period, an observation period of 22 days was established.
The tumor volumes of the mice were calculated according to the expression (4) given below.
The body weights of the mice were measured.

[6] = tested on: KRAS-G12C mutation-positive human cancer cell line NCI-H2122; test: In vivo antitumor activity, NCI-H2122 xenograft mice (Example 3); parameters: species or system nude mice; conditions: sodium salt of compound 1 0.25 or 0.75 mg/kg and/or adagrasib 100 mg/kg, orally once a day for 21 days
Experimental: as §7
The solvent A and the solvent C were administered at 10 ml/kg and 20 ml/kg, respectively, to a control group.
The tumor volumes of the mice were calculated according to the expression (4) given below. […] The ordinates of graphs (a) and (c) of FIG. 17 depict the tumor volumes (mm^3), and the abscissas thereof depict the number of days after cell transplantation.
The body weights of the mice were measured. […] The ordinates of graphs (b) and (d) of FIG. 17 depict the relative body weight change (%), and the abscissas thereof depict the number of days after cell transplantation.

[7] = tested on: KRAS mutation-positive human cancer cell line NCI-H441; test: In vivo antitumor activity, NCI-H441-transplanted models (Example 4); parameters: species or system nude mice; conditions: sodium salt of compound 1 0.0625 mg/kg orally once a day for 10 days and/or bevacizumab 2.5 mg/kg intraperitoneal twice a week
Experimental: (§8) The cells of each line were subcutaneously transplanted at 5×10^6 per mouse to the mice. The mice were grouped (n=5) when a tumor volume reached 200 to 300 mm^3.
Administration to the NCI-H441-transplanted models was performed as described below. […] The solvent A was administered at 20 ml/kg to a control group.

[8] = tested on: KRAS mutation-positive human cancer cell line OV56; test: In vivo antitumor activity, OV56-transplanted models (Example 4); parameters: species or system SCID mice; conditions: sodium salt of compound 1 0.25 mg/kg orally once a day for 10 days and/or bevacizumab 2.5 mg/kg intraperitoneal twice a week
Experimental: as §8
Administration to the OV56-transplanted models was performed as described below. […] The solvent A and physiological saline were administered at 20 ml/kg and 10 ml/kg, respectively, to a control group.

[9] = tested on: KRAS mutation-positive mouse colon cancer cell line CT26; test: In vivo antitumor activity, CT26-transplanted models (Example 6); parameters: species or system BALB/C mice; conditions: sodium salt of compound 1 1 mg/kg orally once a day and/or anti-PD-L1 antibody 10 mg/kg intravenous twice a week, 21 days
Experimental: (§4) Use in combination of the sodium salt of the compound 1 and an anti-PD-L1 antibody was evaluated for its in vivo antitumor activity using BALB/C mice in which a KRAS mutation-positive mouse colon cancer cell line CT26 (Crown Bioscience) was transplanted and C57BL/6J mice in which a KRAS mutation-positive mouse lung cancer tissue slice mLU6054 (Crown Bioscience) was transplanted. The CT26 cells and the mLU6054 tissue slice were subcutaneously transplanted at 5×10^5 and a diameter of […], respectively, per mouse to the mice. The mice were grouped (n=8) when a tumor volume reached approximately 60 to 85 mm^3.
(§5) The CT26- or mLU6054-transplanted models received the single-agent administration or combined administration of the sodium salt of the compound 1 and the anti-PD-L1 antibody. The sodium salt of the compound 1 was dissolved in solvent E for administration. The anti-PD-L 1 antibody was diluted with PBS for administration.
(§6) Administration to the CT26- or mLU6054-transplanted models was performed as described below. The sodium salt of the compound 1 and PBS were administered at 1 mg/kg and 10 ml/kg, respectively, to the single-agent administration group of the sodium salt of the compound 1. […]
as §3

[10] = tested on: KRAS mutation-positive mouse lung cancer tissue slice mLU6054; test: In vivo antitumor activity, mLU6054-transplanted models (Example 6); parameters: species or system C57BL/6J mice; conditions: sodium salt of compound 1 1 mg/kg orally once a day and/or anti-PD-L1 antibody 10 mg/kg intravenous twice a week, 21 days
Experimental: as §4, §5, §6, §3

| SMILES | tumor volume compared with the control group (FIG. 19A) [1] | tumor volume compared with the control group (FIG. 19B) [2] | tumor volume compared with the control group (FIG. 19C) [3] | attenuation of inhibition of pMEK and pERK by lapse of time (Western blot, FIGS. 2 and 3) [4] | inhibition of pMEK, pERK, DUSP4 and DUSP6 (Western blot, FIGS. 2 and 3) ([4]; single-agent treatment) | tumor volume compared with the control group (FIG. 17a) [5] | tumor volume compared with the control group (FIG. 17c) [6] | tumor volume compared with the control group (FIG. 18a) [7] | tumor volume compared with the control group (FIG. 18b) [8] | tumor volume compared with the control group (FIG. 20a) [9] | tumor volume compared with the control group (FIG. 20b) [10] | inhibition of pMEK and pERK (Western blot, FIG. 1) ([4]; single-agent treatment, after 4 hours and 24 hours, 300 nmol/L compound 1) |
| --- | --- | --- | --- | --- | --- | --- | --- | --- | --- | --- | --- | --- |
| C[C@@H]1OCC2(CCN(c3cnc(Sc4ccnc(N)c4Cl)c(N)n3)CC2)[C@@H]1N [TNO155, (3S,4S)-8-(6-amino-5-((2-amino-3-chloropyridin-4-yl)thio)pyrazin-2-yl)-3-methyl-2-oxa-8-azaspiro[4.5]decan-4-amine, reference compound] | suppressed increase in tumor volume | suppressed increase in tumor volume | suppressed increase in tumor volume | tended to be attenuated as time passed | inhibited pMEK, pERK, DUSP4 and DUSP6 |  |  |  |  |  |  |  |
| N[C@@H]1c2ccccc2OC12CCN(c1cnc3c(N4CCCc5ncccc54)n[nH]c3n1)CC2 [GDC-1971, (R)-1′-(3-(3,4-dihydro-1,5-naphtyridin-1(2H)-yl)-1H-pyrazolo[3,4-b]pyridin-6-yl)-3H-spiro[benzofuran-2,4′-piperidin]-3-amine] |  |  |  | tended to be attenuated as time passed | inhibited pMEK, pERK, DUSP4 and DUSP6 |  |  |  |  |  |  |  |
| CNS(=O)(=O)[N]([Na+])c1nccc(Cc2cc(C(N)=O)c(Nc3ccc(C4CC4)cc3F)c(F)c2F)c1F [sodium salt of the compound 1] | suppressed increase in tumor volume | suppressed increase in tumor volume | suppressed increase in tumor volume |  |  | suppressed increase in tumor volume | suppressed increase in tumor volume | suppressed increase in tumor volume | suppressed increase in tumor volume | suppressed increase in tumor volume | suppressed increase in tumor volume |  |
| CNS(=O)(=O)Nc1nccc(Cc2cc(C(N)=O)c(Nc3ccc(C4CC4)cc3F)c(F)c2F)c1F [compound 1, 2-(4-cyclopropyl-2-fluoro-anilino)-3,4-difluoro-5-[[3-fluoro-2-(methylsulfamoylamino)-4-pyridyl]methyl]benzamide] |  |  |  | tended to be attenuated as time passed | inhibited pMEK, pERK, DUSP4 and DUSP6 |  |  |  |  |  |  | inhibited pMEK and pERK |
